Experiments:
[1] = molecular target: Receptor tyrosine-protein kinase erbB-2 (Homo sapiens) (UniProt P04626); assay: Inhibition of ErbB2 (unknown origin) at 100 to 1000 nM relative to control; settings: dose 100-1000 nM
[2] = Antiproliferative activity against LLC cells measured after 72 hrs by SRB staining method; assay type: functional, cell-based; settings: Mus musculus, Lewis lung carcinoma
[3] = molecular target: T1, Serine/threonine-protein kinase TBK1 (Homo sapiens, UniProt Q9UHD2); assay: Inhibition of TBK1 (unknown origin) incubated for 1 hr in presence of ATP by FRET based Z'-Lyte assay
T1 sequence (Q9UHD2 whole entry): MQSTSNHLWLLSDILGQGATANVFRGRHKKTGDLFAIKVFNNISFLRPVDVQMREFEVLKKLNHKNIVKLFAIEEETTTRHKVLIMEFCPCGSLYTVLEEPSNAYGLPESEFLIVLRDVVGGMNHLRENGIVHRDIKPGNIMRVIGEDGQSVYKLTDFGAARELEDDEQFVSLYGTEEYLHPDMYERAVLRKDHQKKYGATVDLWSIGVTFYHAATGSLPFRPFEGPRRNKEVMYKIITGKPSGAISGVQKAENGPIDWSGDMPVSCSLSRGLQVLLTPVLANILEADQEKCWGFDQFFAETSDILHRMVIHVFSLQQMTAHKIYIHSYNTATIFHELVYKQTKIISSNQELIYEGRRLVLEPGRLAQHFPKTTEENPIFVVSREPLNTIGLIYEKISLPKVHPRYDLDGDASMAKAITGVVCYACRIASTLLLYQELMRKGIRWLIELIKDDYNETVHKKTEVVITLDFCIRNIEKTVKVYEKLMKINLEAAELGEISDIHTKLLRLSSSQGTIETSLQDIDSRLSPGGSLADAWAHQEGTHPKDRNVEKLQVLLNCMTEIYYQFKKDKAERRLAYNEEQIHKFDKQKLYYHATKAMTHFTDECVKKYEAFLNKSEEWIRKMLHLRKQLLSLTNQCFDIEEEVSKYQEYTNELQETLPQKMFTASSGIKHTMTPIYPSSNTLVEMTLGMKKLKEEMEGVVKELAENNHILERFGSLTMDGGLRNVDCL

[4] = molecular target: T2, Serine/threonine-protein kinase TBK1 (Homo sapiens) (UniProt Q9UHD2); assay: Inhibition of TBK1 (unknown origin) incubated at 10 nM for 1 hr in presence of ATP by FRET based Z'-Lyte assay relative to control
T2 sequence (whole entry): T1 sequence (Q9UHD2 whole entry)

[5] = molecular target: T2, Serine/threonine-protein kinase TBK1 (Homo sapiens); assay: Inhibition of TBK1 (unknown origin) incubated at 100 nM for 1 hr in presence of ATP by FRET based Z'-Lyte assay relative to control
[6] = molecular target: Vascular endothelial growth factor receptor 1 (Homo sapiens) (UniProt P17948); assay: Inhibition of VEGFR1 (unknown origin) at 100 to 1000 nM relative to control; settings: dose 100-1000 nM
[7] = molecular target: Ephrin type-B receptor 2 (Homo sapiens) (UniProt P29323); assay: Inhibition of EPH-B2 (unknown origin) at 100 to 1000 nM relative to control; settings: dose 100-1000 nM
[8] = molecular target: Tyrosine-protein kinase BTK (Homo sapiens) (UniProt Q06187); assay: Inhibition of BTK (unknown origin) at 100 to 1000 nM relative to control; settings: dose 100-1000 nM
Tyrosine-protein kinase BTK (Homo sapiens), sequence (Q06187 whole entry): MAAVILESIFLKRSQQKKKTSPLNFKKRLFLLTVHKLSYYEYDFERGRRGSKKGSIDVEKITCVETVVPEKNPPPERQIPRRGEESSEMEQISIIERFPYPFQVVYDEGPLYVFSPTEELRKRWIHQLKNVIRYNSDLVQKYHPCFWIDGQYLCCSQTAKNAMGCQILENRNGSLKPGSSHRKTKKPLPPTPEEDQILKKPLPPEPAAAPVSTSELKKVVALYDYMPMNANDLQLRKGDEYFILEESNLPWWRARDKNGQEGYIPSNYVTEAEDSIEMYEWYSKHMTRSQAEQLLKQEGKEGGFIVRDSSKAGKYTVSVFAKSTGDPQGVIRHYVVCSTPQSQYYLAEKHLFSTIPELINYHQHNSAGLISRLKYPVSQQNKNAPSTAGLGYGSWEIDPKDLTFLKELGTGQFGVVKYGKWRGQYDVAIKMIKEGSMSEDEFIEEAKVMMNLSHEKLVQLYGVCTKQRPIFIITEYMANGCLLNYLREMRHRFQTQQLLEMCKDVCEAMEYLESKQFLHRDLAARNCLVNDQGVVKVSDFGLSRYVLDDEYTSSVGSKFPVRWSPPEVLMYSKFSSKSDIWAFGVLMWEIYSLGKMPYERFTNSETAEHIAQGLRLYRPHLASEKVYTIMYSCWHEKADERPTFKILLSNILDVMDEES

[9] = molecular target: Activated CDC42 kinase 1 (Homo sapiens) (UniProt Q07912); assay: Inhibition of ACK1 (unknown origin) at 100 to 1000 nM relative to control; settings: dose 100-1000 nM
[10] = molecular target: Macrophage-stimulating protein receptor (Homo sapiens) (UniProt Q04912); assay: Inhibition of RON (unknown origin) at 100 to 1000 nM relative to control; settings: dose 100-1000 nM
Macrophage-stimulating protein receptor (Homo sapiens), sequence (Q04912 25-304 limits assumed): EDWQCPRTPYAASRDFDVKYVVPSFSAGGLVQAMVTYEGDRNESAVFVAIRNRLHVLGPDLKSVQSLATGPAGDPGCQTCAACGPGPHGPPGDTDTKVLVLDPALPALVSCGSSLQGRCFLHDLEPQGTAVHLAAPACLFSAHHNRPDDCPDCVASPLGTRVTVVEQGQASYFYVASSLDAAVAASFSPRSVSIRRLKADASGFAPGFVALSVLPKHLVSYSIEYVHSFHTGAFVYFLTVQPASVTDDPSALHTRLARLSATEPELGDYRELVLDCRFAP
Macrophage-stimulating protein receptor (Homo sapiens), sequence (Q04912 310-1400 limits assumed): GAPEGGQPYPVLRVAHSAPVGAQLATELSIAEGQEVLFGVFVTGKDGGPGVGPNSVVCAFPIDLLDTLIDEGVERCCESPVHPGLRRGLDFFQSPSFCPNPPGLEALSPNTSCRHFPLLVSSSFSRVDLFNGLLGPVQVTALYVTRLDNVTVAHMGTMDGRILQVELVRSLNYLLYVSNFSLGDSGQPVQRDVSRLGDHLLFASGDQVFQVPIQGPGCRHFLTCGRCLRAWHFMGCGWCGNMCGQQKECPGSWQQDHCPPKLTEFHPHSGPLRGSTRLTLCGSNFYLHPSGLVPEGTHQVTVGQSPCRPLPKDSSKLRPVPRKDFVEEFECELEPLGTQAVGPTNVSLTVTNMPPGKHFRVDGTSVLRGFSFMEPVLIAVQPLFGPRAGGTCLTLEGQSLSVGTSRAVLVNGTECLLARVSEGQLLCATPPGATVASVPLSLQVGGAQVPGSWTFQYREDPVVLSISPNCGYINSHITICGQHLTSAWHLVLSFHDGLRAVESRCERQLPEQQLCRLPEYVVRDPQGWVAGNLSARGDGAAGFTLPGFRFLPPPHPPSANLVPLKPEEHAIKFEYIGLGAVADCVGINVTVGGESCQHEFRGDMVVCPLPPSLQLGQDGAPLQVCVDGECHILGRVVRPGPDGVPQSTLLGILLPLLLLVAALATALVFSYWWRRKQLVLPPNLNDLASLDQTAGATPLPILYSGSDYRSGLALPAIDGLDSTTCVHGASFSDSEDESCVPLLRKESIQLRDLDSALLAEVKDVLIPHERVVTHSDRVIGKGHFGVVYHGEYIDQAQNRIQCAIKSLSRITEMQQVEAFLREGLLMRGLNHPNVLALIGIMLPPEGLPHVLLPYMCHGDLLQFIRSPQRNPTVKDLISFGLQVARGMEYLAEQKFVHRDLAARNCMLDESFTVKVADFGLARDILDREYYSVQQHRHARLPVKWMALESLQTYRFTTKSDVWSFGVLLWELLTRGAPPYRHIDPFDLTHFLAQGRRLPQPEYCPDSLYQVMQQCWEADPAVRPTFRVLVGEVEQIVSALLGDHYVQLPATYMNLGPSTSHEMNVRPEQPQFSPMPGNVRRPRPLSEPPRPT

THP1-Blue ISG [11] = assay: Inhibition of LPS-induced ifn-beta in human THP1-Blue ISG cells treated for 2 hrs RTq-PCR analysis; assay type: functional, cell-based; settings: dose 0.1-1 µM
[12] = molecular target: T2, Serine/threonine-protein kinase TBK1 (Homo sapiens); assay: Inhibition of TBK1 phosphorylation (unknown origin) of downstream signalling effector protein S6K at 1 to 20 uM after 24 hrs by Western blotting analysis; settings: dose 1-20 µM
[13] = molecular target: Macrophage colony-stimulating factor 1 receptor (Homo sapiens) (UniProt P07333); assay: Inhibition of CSF1R (unknown origin) at 100 to 1000 nM relative to control; settings: dose 100-1000 nM
[14] = molecular target: Vascular endothelial growth factor receptor 2 (Homo sapiens) (UniProt P35968); assay: Inhibition of VEGFR2 (unknown origin) at 100 to 1000 nM relative to control; settings: dose 100-1000 nM
[15] = molecular target: Proto-oncogene tyrosine-protein kinase receptor Ret (Homo sapiens) (UniProt P07949); assay: Inhibition of RET (unknown origin) at 100 to 1000 nM relative to control; settings: dose 100-1000 nM
[16] = molecular target: Insulin-like growth factor 1 receptor (Homo sapiens) (UniProt P08069); assay: Inhibition of IGF1R (unknown origin) at 100 to 1000 nM relative to control; settings: dose 100-1000 nM
[17] = molecular target: Focal adhesion kinase 1 (Homo sapiens) (UniProt Q05397); assay: Inhibition of FAK (unknown origin) at 100 to 1000 nM relative to control; settings: dose 100-1000 nM
[18] = molecular target: Platelet-derived growth factor receptor alpha (Homo sapiens) (UniProt P16234); assay: Inhibition of PDGFR-alpha (unknown origin) at 100 to 1000 nM relative to control; settings: dose 100-1000 nM
THP1-Blue ISG [19] = assay: Inhibition of LPS-induced cxcl10 in human THP1-Blue ISG cells treated for 2 hrs RTq-PCR analysis; assay type: functional, cell-based; settings: dose 0.1-1 µM
[20] = molecular target: Epidermal growth factor receptor (Homo sapiens) (UniProt P00533); assay: Inhibition of EGFR (unknown origin) at 100 to 1000 nM relative to control; settings: dose 100-1000 nM
[21] = molecular target: T2, Serine/threonine-protein kinase TBK1 (Homo sapiens); assay: Inhibition of TBK1 (unknown origin) incubated at 1000 nM for 1 hr in presence of ATP by FRET based Z'-Lyte assay relative to control
[22] = molecular target: Vascular endothelial growth factor receptor 3 (Homo sapiens) (UniProt P35916); assay: Inhibition of VEGFR3 (unknown origin) at 100 to 1000 nM relative to control; settings: dose 100-1000 nM
RAW264.7 = assay: Inhibition of LPS-induced cxcl10 in mouse RAW264.7 cells treated for 2 hrs RTq-PCR analysis; assay type: functional, cell-based; settings: dose 0.1-1 µM
[23] = molecular target: Platelet-derived growth factor receptor beta (Homo sapiens) (UniProt P09619); assay: Inhibition of PDGFR-beta (unknown origin) at 100 to 1000 nM relative to control; settings: dose 100-1000 nM
A549 = assay: Antiproliferative activity against human A549 cells measured after 72 hrs by SRB staining method; assay type: functional, cell-based; settings: A549, 72 h
[24] = molecular target: Fibroblast growth factor receptor 4 (Homo sapiens) (UniProt P22455); assay: Inhibition of FGFR4 (unknown origin) at 100 to 1000 nM relative to control; settings: dose 100-1000 nM
[25] = molecular target: Receptor tyrosine-protein kinase erbB-4 (Homo sapiens) (UniProt Q15303); assay: Inhibition of ErbB4 (unknown origin) at 100 to 1000 nM relative to control; settings: dose 100-1000 nM
[26] = molecular target: Fibroblast growth factor receptor 2 (Homo sapiens) (UniProt P21802); assay: Inhibition of FGFR2 (unknown origin) at 100 to 1000 nM relative to control; settings: dose 100-1000 nM
Fibroblast growth factor receptor 2 (Homo sapiens), sequence (P21802 22-821 limits assumed): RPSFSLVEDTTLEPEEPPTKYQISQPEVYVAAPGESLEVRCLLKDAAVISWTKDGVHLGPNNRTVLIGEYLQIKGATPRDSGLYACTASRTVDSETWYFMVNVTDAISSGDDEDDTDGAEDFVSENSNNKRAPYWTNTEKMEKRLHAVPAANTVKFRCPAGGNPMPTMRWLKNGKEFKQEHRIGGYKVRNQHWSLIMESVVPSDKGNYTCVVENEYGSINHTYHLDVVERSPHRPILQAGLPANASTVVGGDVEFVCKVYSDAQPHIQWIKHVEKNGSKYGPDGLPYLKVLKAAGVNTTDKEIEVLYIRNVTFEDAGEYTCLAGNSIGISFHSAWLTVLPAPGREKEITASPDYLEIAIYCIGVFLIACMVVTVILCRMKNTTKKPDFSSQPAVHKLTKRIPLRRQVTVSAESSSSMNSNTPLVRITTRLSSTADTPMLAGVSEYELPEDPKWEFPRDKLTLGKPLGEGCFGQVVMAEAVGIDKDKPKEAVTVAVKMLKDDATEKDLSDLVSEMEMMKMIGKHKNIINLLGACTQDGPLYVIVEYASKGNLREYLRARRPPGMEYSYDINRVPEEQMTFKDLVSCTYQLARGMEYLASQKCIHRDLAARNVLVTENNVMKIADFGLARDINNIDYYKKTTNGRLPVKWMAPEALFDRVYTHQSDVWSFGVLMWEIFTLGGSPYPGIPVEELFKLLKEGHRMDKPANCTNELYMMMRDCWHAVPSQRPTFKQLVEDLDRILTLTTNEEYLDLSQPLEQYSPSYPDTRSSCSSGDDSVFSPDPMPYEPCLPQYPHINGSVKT

[27] = molecular target: Mast/stem cell growth factor receptor Kit (Homo sapiens) (UniProt P10721); assay: Inhibition of KIT (unknown origin) at 100 to 1000 nM relative to control; settings: dose 100-1000 nM
Mast/stem cell growth factor receptor Kit (Homo sapiens), sequence (P10721 whole entry): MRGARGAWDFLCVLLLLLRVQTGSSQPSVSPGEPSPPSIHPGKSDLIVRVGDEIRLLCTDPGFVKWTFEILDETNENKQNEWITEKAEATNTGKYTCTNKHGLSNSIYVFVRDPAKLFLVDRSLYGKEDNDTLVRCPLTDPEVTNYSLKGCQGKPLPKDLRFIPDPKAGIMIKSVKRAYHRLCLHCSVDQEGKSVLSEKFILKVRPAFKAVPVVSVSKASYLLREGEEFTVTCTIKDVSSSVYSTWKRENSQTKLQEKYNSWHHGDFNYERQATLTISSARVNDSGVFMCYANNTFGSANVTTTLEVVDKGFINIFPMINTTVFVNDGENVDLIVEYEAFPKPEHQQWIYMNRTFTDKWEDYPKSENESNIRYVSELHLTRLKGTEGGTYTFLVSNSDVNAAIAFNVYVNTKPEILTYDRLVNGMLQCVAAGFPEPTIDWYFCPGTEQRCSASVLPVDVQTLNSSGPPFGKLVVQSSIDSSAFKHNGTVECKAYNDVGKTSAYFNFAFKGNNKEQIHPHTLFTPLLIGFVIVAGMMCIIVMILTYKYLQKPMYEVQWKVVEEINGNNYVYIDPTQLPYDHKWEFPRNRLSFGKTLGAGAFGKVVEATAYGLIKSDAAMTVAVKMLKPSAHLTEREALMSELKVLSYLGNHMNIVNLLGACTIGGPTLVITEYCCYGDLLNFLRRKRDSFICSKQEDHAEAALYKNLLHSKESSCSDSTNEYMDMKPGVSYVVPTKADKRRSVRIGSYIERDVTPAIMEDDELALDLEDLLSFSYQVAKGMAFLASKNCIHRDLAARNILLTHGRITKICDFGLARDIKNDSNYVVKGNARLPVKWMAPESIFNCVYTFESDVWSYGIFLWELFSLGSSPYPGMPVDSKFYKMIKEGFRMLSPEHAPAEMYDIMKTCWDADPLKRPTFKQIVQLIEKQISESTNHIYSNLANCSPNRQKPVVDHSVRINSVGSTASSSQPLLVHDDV

Receptor tyrosine-protein kinase erbB-2 (Homo sapiens), sequence (P04626 whole entry): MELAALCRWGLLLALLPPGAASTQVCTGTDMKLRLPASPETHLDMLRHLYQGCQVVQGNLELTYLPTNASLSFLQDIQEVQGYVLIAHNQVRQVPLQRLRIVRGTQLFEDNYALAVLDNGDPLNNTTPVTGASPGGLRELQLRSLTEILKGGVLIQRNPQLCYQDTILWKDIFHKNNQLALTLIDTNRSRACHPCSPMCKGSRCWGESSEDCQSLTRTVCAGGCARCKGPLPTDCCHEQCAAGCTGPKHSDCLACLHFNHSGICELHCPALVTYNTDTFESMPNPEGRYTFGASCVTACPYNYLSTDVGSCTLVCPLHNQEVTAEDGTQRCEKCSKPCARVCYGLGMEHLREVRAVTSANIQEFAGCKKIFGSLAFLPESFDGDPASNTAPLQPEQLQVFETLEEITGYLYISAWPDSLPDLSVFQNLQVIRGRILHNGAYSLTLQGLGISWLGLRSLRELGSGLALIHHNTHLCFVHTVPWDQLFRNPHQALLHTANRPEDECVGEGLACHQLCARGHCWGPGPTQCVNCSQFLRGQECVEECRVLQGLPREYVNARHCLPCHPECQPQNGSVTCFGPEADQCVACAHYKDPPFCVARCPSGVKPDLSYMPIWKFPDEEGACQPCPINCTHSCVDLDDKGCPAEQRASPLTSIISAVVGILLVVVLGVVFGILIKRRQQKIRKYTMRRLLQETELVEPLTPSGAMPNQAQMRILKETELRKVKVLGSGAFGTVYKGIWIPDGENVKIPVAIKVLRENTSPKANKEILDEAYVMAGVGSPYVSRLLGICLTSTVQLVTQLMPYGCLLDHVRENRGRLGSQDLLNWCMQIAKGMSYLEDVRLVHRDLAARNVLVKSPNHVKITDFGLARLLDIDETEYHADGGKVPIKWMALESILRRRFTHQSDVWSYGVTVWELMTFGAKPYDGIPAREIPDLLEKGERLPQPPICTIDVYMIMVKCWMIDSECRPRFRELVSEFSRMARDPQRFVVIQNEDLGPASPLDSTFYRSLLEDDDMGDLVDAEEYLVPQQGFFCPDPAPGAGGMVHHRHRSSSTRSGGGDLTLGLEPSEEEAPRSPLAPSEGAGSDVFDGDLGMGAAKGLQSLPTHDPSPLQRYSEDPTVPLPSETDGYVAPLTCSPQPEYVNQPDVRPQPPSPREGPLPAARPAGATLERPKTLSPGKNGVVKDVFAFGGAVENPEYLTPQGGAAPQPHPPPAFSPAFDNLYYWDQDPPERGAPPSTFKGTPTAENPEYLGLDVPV

CC(=O)N1CCN(Cc2cccc(Nc3ncc4ccn(CCCNC(=O)C5CCC5)c4n3)c2)CC1
inhibition [1]: < 35% | IC50 [2]: 9.4 µM | IC50 [3]: 0.0224 µM | inhibition [4]: 56.7% | inhibition [5]: 66.2% | inhibition [6]: < 35% | inhibition [7]: < 35% | inhibition [8]: < 35% | inhibition [9]: < 35% | inhibition [10]: < 35% | inhibition (THP1-Blue ISG [11]): Dose-Dependent Effect | inhibition [12]: Dose-Dependent Effect | inhibition [13]: < 35% | inhibition [14]: < 35% | inhibition [15]: < 35% | inhibition [16]: < 35% | inhibition [17]: < 35% | inhibition [18]: < 35% | inhibition (THP1-Blue ISG [19]): Dose-Dependent Effect | inhibition [20]: < 35% | inhibition [21]: 89% | inhibition [22]: < 35% | inhibition (RAW264.7): Dose-Dependent Effect | inhibition [23]: < 35% | IC50 (A549): 17.6 µM | inhibition [24]: < 35% | inhibition [25]: < 35% | inhibition [26]: < 35% | inhibition [27]: < 35%

Source: ChEMBL document CHEMBL5352492, “Application of deep generative model for design of Pyrrolo[2,3-d] pyrimidine derivatives as new selective TANK binding kinase 1 (TBK1) inhibitors” (Eur J Med Chem, 2023)
